In EP0312157A2, “Tetrapeptide renin inhibitors having a novel c-terminal amino acid” (Merck & Co., Inc., priority 1987, dated 1989):
Structures can show the parent of a compound that is named as a salt.

Molecular target: T1, renin (Homo sapiens, UniProt P00797)
T1 sequence (P00797 67-406): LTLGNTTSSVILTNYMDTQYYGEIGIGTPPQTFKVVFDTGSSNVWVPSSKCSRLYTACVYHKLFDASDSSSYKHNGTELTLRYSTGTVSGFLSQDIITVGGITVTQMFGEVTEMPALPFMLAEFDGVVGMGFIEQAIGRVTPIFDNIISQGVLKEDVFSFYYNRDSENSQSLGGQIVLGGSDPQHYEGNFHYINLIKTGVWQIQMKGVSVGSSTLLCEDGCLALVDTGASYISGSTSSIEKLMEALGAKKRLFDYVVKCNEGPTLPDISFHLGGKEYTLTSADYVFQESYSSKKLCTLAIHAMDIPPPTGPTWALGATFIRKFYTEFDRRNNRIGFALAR
Experiment: renin inhibition, IC50 (method not described)
Assay type: biochemical

Row | Compound | IC50 [nM]
1 | CC(C)(C)OC(=O)N[C@@H](Cc1ccccc1)C(=O)N[C@@H](Cc1c[nH]cn1)C(=O)N[C@@H](CC1CCCCC1)[C@@H](O)CC(=O)N[C@@H](CCCCN)C(=O)NCc1ccncc1 [Example 1, N^α-t-butoxycarbonyl-L-Phenylalanyl-L-histidyl-(3S,4S)-4-amino-5-cyclohexyl-3-hydroxypentanoyl-L-lysyl-4-(aminomethyl)pyridine amide hydrochloride] | 38
2 | CC(C)(C)OC(=O)N[C@@H](Cc1ccccc1)C(=O)N[C@@H](Cc1c[nH]cn1)C(=O)N[C@@H](CC1CCCCC1)[C@@H](O)CC(=O)N[C@@H](CCCCN)C(=O)NCC1CCNCC1 [Example 2, N^α-t-butoxycarbonyl-L-phenylalanyl-L-histidyl-{3S,4S)-4-amino-5-cyclohexyl-3-hydroxy-pentanoyl-L-lysyl-4-(aminomethyl)-piperidinamide dihydrochloride] | 338
3 | CN(CCc1ccccn1)C(=O)[C@H](CCCCN)NC(=O)C[C@H](O)[C@H](CC1CCCCC1)NC(=O)[C@H](Cc1c[nH]cn1)NC(=O)[C@H](Cc1ccccc1)NC(=O)OC(C)(C)C [Example 5, N^α-t-butoxycarbonyl-L-phenylalanyl-L-histidyl-(3S,4S)-4-amino-5-cyclohexyl-3-hydroxypentanoyl-L-lysyl-2-(2-methylaminoethyl)-pyridinamide acetate] | 225
4 | COc1ccc(C[C@H](NC(=O)OC(C)(C)C)C(=O)N[C@@H](Cc2c[nH]cn2)C(=O)N[C@@H](CC2CCCCC2)[C@@H](O)CC(=O)N[C@@H](CCCCN)C(=O)NCc2ccncc2)cc1 [Example 6, N^α-t-butoxycarbonyl-O-methyl-L-tyrosyl-L-histidyl-(3S,4S)-4-amino-5-cyclohexyl-3-hydroxy-pentanoyl-L-lysyl-4-(aminomethyl)pyridine amide] | 42
5 | CC(C)(C)OC(=O)N[C@@H](Cc1ccccc1)C(=O)N[C@@H](Cc1c[nH]cn1)C(=O)N[C@@H](CC1CCCCC1)[C@@H](O)CC(=O)N[C@@H](CCCCN)C(=O)N[C@H]1CCCCNC1=O [Example 9, N^α-t-butoxycarbonyl-L-phenylalanyl-L-histidyl-(3S,4S)-4-amino-5-cyclohexyl-3-hydroxypentanoyl-L-lysyl-L-3-amino-2-oxoazepine amide hydrochloride] | 26.4
6 | CC(C)(C)OC(=O)N[C@@H](Cc1ccccc1)C(=O)N[C@@H](Cc1c[nH]cn1)C(=O)N[C@@H](CC1CCCCC1)[C@@H](O)CC(=O)N[C@@H](CN)C(=O)NCc1ccncc1 [Example 10, N^α-t-butoxycarbonyl-L-phenylalanyl-L-histidyl-(3S,4S)-4-amino-5-cyclohexyl-3-hydroxypentanoyl-L-2,4-diaminopropionyl-4-(aminomethyl)pyridine amide hydrochloride] | 37
7 | NCCCC[C@H](NC(=O)C[C@H](O)[C@H](CC1CCCCC1)NC(=O)[C@H](Cc1c[nH]cn1)NC(=O)[C@H](Cc1ccccc1)NC(=O)N1CCOCC1)C(=O)NCc1ccncc1 [Example 23, N-[(Morpholin-4-yl)carbonyl]Phe-His-ACHPA-Lys-NHCH2(pyridin-4-y1)] | 12
8 | CC(C)(C)OC(=O)NCCOC(=O)N[C@@H](Cc1ccccc1)C(=O)N[C@@H](Cc1c[nH]cn1)C(=O)N[C@@H](CC1CCCCC1)[C@@H](O)CC(=O)N[C@@H](CCCCN)C(=O)NCC1CCNCC1 [Example 26, Boc-NHCH2CH2OCO-Phe-His-ACHPA-Lys-NHCH2(piperidin-4-yl)] | 39
9 | CC(C)S(=O)(=O)N[C@@H](Cc1ccccc1)C(=O)N[C@@H](Cc1c[nH]cn1)C(=O)N[C@@H](CC1CCCCC1)[C@@H](O)CC(=O)N[C@@H](CCCCN)C(=O)NCC1CCNCC1 [Example 27, i-PrSO2-Phe-His-ACHPA-Lys-CH2(piperidin-4-yl)] | 159
10 | N^α-t-butoxycarbonyl-L-phenylalanyl-L-histidyl-(3S,4S)-4-amino-5-cyclohexyl-3-hydroxypentanoyl-L-lysyl-N-(2-aminoethyl)-morpholine amide dihydrochloride [Example 12] | 68.9
